Measured values from ChEMBL document CHEMBL2385043, “Recent advances in malaria drug discovery” (Bioorg Med Chem Lett, 2013).
Values belong to the molecule of their own block, whether it stands above or below them.

What was measured:
[1] = tested on: Plasmodium falciparum; test: Antiplasmodial activity against Plasmodium falciparum; format: functional, organism-based
[2] = Toxicity in po dosed Sprague-Dawley rat; format: organism-based; details: in vivo
[3] = tested on: Plasmodium; test: Antimalarial activity against Plasmodium infected in mouse; format: functional
[4] = tested on: Plasmodium falciparum; test: Antiplasmodial activity against drug-sensitive Plasmodium falciparum 3D7 after 24 hrs by [3H]-hypoxanthine incorporation assay; format: functional, organism-based
[5] = tested on: Plasmodium falciparum; test: Antiplasmodial activity against Plasmodium falciparum relative to artesunate; format: functional
[6] = tested on: Plasmodium berghei; test: Antimalarial activity against Plasmodium berghei infected in Swiss albino mouse assessed as reduction in parasitemia after 4 days by microscopic analysis; format: functional; details: 96 h
[7] = tested on: Plasmodium berghei; test: Antimalarial activity against Plasmodium berghei infected in Swiss albino mouse assessed as reduction in parasitemia after 4 days by microscopic analysis relative to artesunate; format: functional
[8] = tested on: Plasmodium falciparum; test: Antiplasmodial activity against NITD609-resistant Plasmodium falciparum Dd2 infected in human erythrocytes after 48 hrs by [3H]-hypoxanthine incorporation assay; format: functional, organism-based
[9] = Half life in human; format: ADME, organism-based; details: in vivo
[10] = tested on: Plasmodium falciparum; test: Antiplasmodial activity against chloroquine-resistant Plasmodium falciparum K1 infected in human erythrocytes after 48 hrs by [3H]-hypoxanthine incorporation assay; format: functional, organism-based
[11] = tested on: Plasmodium falciparum; test: Antimalarial activity against Plasmodium falciparum infected in po dosed mouse assessed as decrease in parasitemia administered on day 1 postinfection measured on day 3 by FACS analysis; format: functional
[12] = tested on: Plasmodium falciparum; test: Antimalarial activity against Plasmodium falciparum infected in SCID mouse; format: functional
[13] = tested on: Plasmodium falciparum; test: Antiplasmodial activity against multidrug-resistant Plasmodium falciparum W2 infected in human erythrocytes after 24 hrs by [3H]-hypoxanthine incorporation assay
[14] = tested on: Plasmodium berghei; test: Antimalarial activity against Plasmodium berghei infected in po dosed mouse; format: functional
[15] = Oral bioavailability in rat; format: ADME, organism-based; details: in vivo
[16] = Half life in po dosed rat; details: in vivo
[17] = tested on: Plasmodium falciparum; test: Antiplasmodial activity against drug-sensitive Plasmodium falciparum 3D7; format: functional, organism-based
[18] = tested on: Plasmodium falciparum; test: Antiplasmodial activity against liver stage of drug-sensitive Plasmodium falciparum D10; format: functional, organism-based
[19] = tested on: Plasmodium falciparum; test: Antiplasmodial activity against liver stage of drug-sensitive Plasmodium falciparum 3D7; format: functional, organism-based; details: 3D7, Liver
[20] = biological target: Lysine--tRNA ligase (Homo sapiens, UniProt Q15046); test: Inhibition of human recombinant cytoplasmic lysyl-tRNA synthetase
[21] = tested on: Plasmodium falciparum; test: Antiplasmodial activity against chloroquine and antifolate-sensitive Plasmodium falciparum TM4 after 24 hrs by [3H]-hypoxanthine incorporation assay; format: functional, organism-based
[22] = tested on: Plasmodium falciparum; test: Antiplasmodial activity against asexual blood stage of Plasmodium falciparum; format: functional, organism-based
[23] = tested on: Plasmodium yoelii; test: Antiplasmodial activity against liver stage of Plasmodium yoelii; format: functional, organism-based
[24] = Inhibition of Plasmodium falciparum cytochrome b-c1 complex
[25] = Selectivity ratio of IC50 for human cytochrome b-c1 complex to IC50 for Plasmodium falciparum cytochrome b-c1 complex
[26] = tested on: Plasmodium falciparum; test: Antiplasmodial activity against sexual blood stage of Plasmodium falciparum; format: functional, organism-based
[27] = Terminal half life in human; format: ADME, organism-based; details: in vivo, read-out: beta t1/2 (converted)
[28] = tested on: Plasmodium falciparum; test: Antiplasmodial activity against multidrug-resistant Plasmodium falciparum W2 infected in human erythrocytes; format: functional, organism-based
[29] = tested on: Plasmodium falciparum; test: Antiplasmodial activity against Plasmodium falciparum by SYBR Green staining-based fluorescence assay; format: functional, organism-based
[30] = tested on: Plasmodium yoelii yoelii; test: Antimalarial activity against Plasmodium yoelii yoelii infected in mouse; format: functional
[31] = Half life in Sprague-Dawley rat at 3 mg/kg, iv; format: ADME, organism-based; set-up: dose 3 mg/kg, route intravenous; details: in vivo
[32] = tested on: Plasmodium falciparum; test: Antiplasmodial activity against multidrug-resistant Plasmodium falciparum W2 infected in human erythrocytes after 72 hrs by ELISA; format: functional, organism-based; details: W2, 72 h
[33] = tested on: Plasmodium falciparum; test: Antimalarial activity against multidrug-resistant Plasmodium falciparum W2 infected in ip dosed mouse assessed as reduction in parasitemia administered on day 64 post-infection; format: functional; details: 1536 h
[34] = tested on: Plasmodium falciparum; test: Antiplasmodial activity against Plasmodium falciparum VS/1 expressing DHFR quadruple mutation by [3H]-hypoxanthine incorporation assay; format: functional, organism-based
[35] = tested on: Plasmodium falciparum; test: Antiplasmodial activity against wild type Plasmodium falciparum TM4 by [3H]-hypoxanthine incorporation assay; details: TM4, 3 h

Lysine--tRNA ligase, sequence (Q15046 whole entry): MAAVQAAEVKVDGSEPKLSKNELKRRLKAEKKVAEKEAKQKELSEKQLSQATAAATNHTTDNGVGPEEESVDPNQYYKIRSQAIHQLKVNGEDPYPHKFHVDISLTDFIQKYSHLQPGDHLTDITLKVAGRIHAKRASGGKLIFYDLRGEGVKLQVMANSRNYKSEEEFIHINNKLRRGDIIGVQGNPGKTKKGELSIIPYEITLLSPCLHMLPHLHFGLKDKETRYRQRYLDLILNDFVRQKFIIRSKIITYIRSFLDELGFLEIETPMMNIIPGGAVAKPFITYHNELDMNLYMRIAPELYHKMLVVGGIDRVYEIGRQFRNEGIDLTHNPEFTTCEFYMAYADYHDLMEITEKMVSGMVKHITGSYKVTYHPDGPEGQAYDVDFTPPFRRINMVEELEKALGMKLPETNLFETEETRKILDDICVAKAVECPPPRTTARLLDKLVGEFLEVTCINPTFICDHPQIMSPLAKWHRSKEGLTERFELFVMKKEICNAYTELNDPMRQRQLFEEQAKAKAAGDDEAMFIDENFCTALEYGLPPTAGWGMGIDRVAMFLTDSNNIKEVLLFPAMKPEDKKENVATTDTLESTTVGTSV

SMILES: c1cc([C@H]2CC[C@]3(CC2)OO[C@]2(O3)C3CC4CC(C3)CC2C4)ccc1OCCN1CCOCC1 [ARTEFENOMEL]
EC50 [1]: 3.4 nM | MTD [2]: 300 mg/kg | ED50 [3]: 20 mg/kg

SMILES: C[C@H]1[C@H](N2CCS(=O)(=O)CC2)O[C@@H]2O[C@@]3(C)CC[C@H]4[C@H](C)CC[C@@H]1[C@@]24OO3 [ARTEMIFONE]
EC50 [4]: 0.88 nM | fold change (FC) [5]: 10 | ED50 [6]: 2 mg/kg/day | fold change (FC) [7]: 4

SMILES: C[C@@H]1CC[C@H]2[C@@H](C)C(=O)O[C@@H]3O[C@@]4(C)CC[C@@H]1[C@]32OO4 [ARTEMISININ]
EC50 [8]: 15 nM

half-life [9]: 60 min
SMILES: C[C@H]1[C@@H](O)O[C@@H]2O[C@@]3(C)CC[C@H]4[C@H](C)CC[C@@H]1[C@@]24OO3 [ARTENIMOL]

SMILES: C[C@H]1[C@H](OC(=O)CCC(=O)O)O[C@@H]2O[C@@]3(C)CC[C@H]4[C@H](C)CC[C@@H]1[C@@]24OO3 [ARTESUNATE]
half-life [9]: 60 min | EC50 [10]: 3.1 nM | ED50 [11]: 6.2 mg/kg/day

SMILES: CCN(CC)CCCC(C)Nc1ccnc2cc(Cl)ccc12 (stereo not drawn) [CHLOROQUINE]
ED90 [12]: 6.4 mg/kg/day | EC50 [13]: 49 nM | ED50 [14]: 1.9 mg/kg

SMILES: C[C@H]1Cc2c([nH]c3cc(Cl)c(F)cc23)[C@@]2(N1)C(=O)Nc1ccc(Cl)cc12 [CIPARGAMIN]
ED50 [14]: 1.2 mg/kg | bioavailability [15]: 100% | half-life [16]: 1620 min | EC50 [17]: 0.7 nM

EC50 [18]: 90 nM | EC50 [19]: 45 nM | IC50 [20]: > 20 µM
SMILES: C[C@H]1CCC[C@H](C[C@H]2Cc3cc(O)cc(O)c3C(=O)O2)O1 [CLADOSPORIN]

EC50 [21]: 38 nM
SMILES: CC1(C)N=C(N)N=C(N)N1c1ccc(Cl)cc1 [CYCLOGUANIL]

EC50 [22]: 10 nM | EC50 [23]: 2.6 nM | IC50 [24]: 2 nM | Ratio IC50 [25]: > 5000 | EC50 [26]: 36 nM
SMILES: CCCCCCCCCCOc1cc2c(O)c(C(=O)OCC)cnc2cc1OCC [DECOQUINATE]

SMILES: CCCCN(CCCC)CC(O)c1cc(Cl)cc2c1-c1ccc(Cl)cc1/C2=C/c1ccc(Cl)cc1 (stereo not drawn) [LUMEFANTRINE]
half-life [27]: 3 days | EC50 [28]: 0.45 nM

SMILES: C[C@@]12OC(=O)[C@]1([C@@H](O)[C@@H]1C=CCCC1)NC(=O)[C@@H]2CCCl [MARIZOMIB]
EC50 [29]: 11 nM | ED50 [30]: 0.25 mg/kg/day

SMILES: CC(C)(N)CNC(=O)C[C@H]1CC[C@]2(CC1)OO[C@]1(O2)C2CC3CC(C2)CC1C3 [OZ277]
half-life [31]: 60 min

SMILES: Clc1ccc2c(N3CCN(CCCN4CCN(c5ccnc6cc(Cl)ccc56)CC4)CC3)ccnc2c1 [PIPERAQUINE]
half-life [9]: 11500 min | EC50 [32]: 12.5 nM | ED50 [33]: 4.5 mg/kg

SMILES: CCc1nc(N)nc(N)c1-c1ccc(Cl)cc1 [PYRIMETHAMINE]
IC50 [34]: > 100 µM | IC50 [35]: 58 nM
